Reference: patent US20150072969A1, “PHENYL ALKANOIC ACID DERIVATIVES AS GPR AGONISTS” (PIRAMAL ENTERPRISES LIMITED, priority 2012, published 2015)

Target: T1, human GPR40 (Homo sapiens, UniProt O14842)
T1 construct: expressed in transfected cells
Test: Inositol phosphate accumulation assay in FFAR1 (GPR40) CHOK1 clone
Assay type: cell-based
Conditions: GPR40 agonist activity; intracellular inositol phosphate release in CHOK1 cells stably expressing recombinant human GPR40; 1 h incubation at 37° C.
Method: The inositol phosphate accumulation assay was performed to characterise the GPR40 agonist activity of the compounds of the present invention.
The assay was carried out in accordance with the method substantially as described in Diabetes, 2008, 57(8):2211-2219 and PLoS One, 2011, 6(11):e27270.
A stable FFAR1 (GPR40) CHOK1 clone was used to determine the GPR40 agonist activity of the test compounds (compounds of the present invention synthesized in the above Examples). The stable FFAR1 (GPR40) CHOK1 clone expressing recombinant human GPR40 was generated according to the procedure described herein below.
Full-length human GPR40 cDNA (Accession Number: NM_005303) was cloned into mammalian expression vector (pReceiver) and was stably transfected into (Chinese Hamster Ovary) CHOK1 cells using Amaxa technology. 2 μg of pReceiver hGPR40 were transfected into 1×10^6 CHOK1 cells in 6 well plates. The cells were split into three 100 mm cell culture plates on the second day and geneticin (800 μg/ml) was added to the cell culture on the third day. The selection medium comprising Ham's F-12 K supplemented with FBS (10%) and geneticin (800 μg/ml) was changed every three days until colonies were formed. The colonies isolated were further purified (single cell cloning) after 14 days to obtain pure isogenic single cell homogenous population of cells expressing the GPR40 receptor protein on the cell surface. GPR40 receptor expression on cell surface was measured by flow cytometry. The in-house transgenic cell line (clone) created was labeled as FFAR1 (GPR40) CHOK1 clone.
FFAR1 (GPR40) CHOK1 cells were suspended in culture medium comprising Ham's F-12 K supplemented with FBS (10%) and geneticin (800 μg/ml). Cells were seeded at a density of 2×10^4 cells per well in a 384 well tissue culture plate and cultured overnight. The medium was discarded and the cells were further resuspended in a stimulation buffer comprising HEPES (10 mM), glucose (5.5 mM), CaCl2 (1 mM), NaCl (150 mM), KCl (4.2 mM), MgCl2 (0.5 mM) and LiCl (50 mM) having a pH of 7.6. The test compounds (representative compounds of Formula (I)) 10 mM stock were prepared in DMSO and subsequently log fold dilution of the test compounds were carried out in the stimulation buffer. Various concentrations of the test compounds and the standard DMSO solution were added to each well. The plates were further incubated at 37° C., 5% CO2 incubator for 1 h. The final concentration of the test compounds in the each well varied from 1 μM to 10 μM. The DMSO concentration in the assay was 0.1% or less. After incubation, lysis reagent and anti-Tb conjugate were added to each well. The intracellular Inositol Phosphate release and accumulation in the test compounds were measured by the binding ability of the anti-Tb conjugate with the inositol phosphate inherently produced in each well as compared with the inositol phosphate coupled to dye d2 added externally to each well. The plates were then read using Perkin Elmer (Envision) plate reader and the fluorescence signal was captured. The EC50 values for the test compounds were calculated from the non linear regression sigmoidal curve graphs plotted between the concentrations of the test compounds and the fluorescence intensity.

T1 sequence (O14842 whole entry): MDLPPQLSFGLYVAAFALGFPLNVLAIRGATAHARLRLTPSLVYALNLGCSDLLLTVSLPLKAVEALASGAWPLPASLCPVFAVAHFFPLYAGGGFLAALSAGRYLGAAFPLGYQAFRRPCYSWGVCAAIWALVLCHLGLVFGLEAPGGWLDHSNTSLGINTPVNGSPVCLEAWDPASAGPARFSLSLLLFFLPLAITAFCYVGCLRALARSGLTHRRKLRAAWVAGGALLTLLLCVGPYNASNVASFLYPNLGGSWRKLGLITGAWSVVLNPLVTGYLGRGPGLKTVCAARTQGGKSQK

| Compound | EC50 [nM] |
| --- | --- |
| O=C(O)CC1(c2ccc(OCc3cccc(-c4ccccc4)c3)cc2)COC1 [Example 4, 2-(3-(4-([1,1′-Biphenyl]-3-ylmethoxy)phenyl)oxetan-3-yl)acetic acid] | 100 to 500 |
| N#Cc1ccccc1-c1ccc(COc2ccc(C3(CC(=O)O)COC3)cc2)cc1 [Example 6, 2-(3-(4-((2′-Cyano-[1,1′-biphenyl]-4-yl)methoxy)phenyl)oxetan-3-yl)acetic acid] | 100 to 500 |
| O=C(O)CC1(c2ccc(OCc3ccc(-c4ccccc4)cc3)cc2)COC1 [Example 8, 2-(3-(4-([1,1′-Biphenyl]-4-ylmethoxy)phenyl)oxetan-3-yl)acetic acid] | 100 to 500 |
| Cc1cc(OCCCS(C)(=O)=O)cc(C)c1-c1cccc(COc2ccc(C3(CC(=O)O)COC3)cc2)c1 [Example 10, 2-(3-(4-((2′,6′-Dimethyl-4′-(3-(methylsulfonyl)propoxy)-[1,1′-biphenyl]-3-yl)methoxy)phenyl)oxetan-3-yl)acetic acid] | < 100 |
| O=C(O)CC1(c2ccc(OCc3cccc(-c4ccccc4)c3)c(F)c2)COC1 [Example 12, 2-(3-(4-([1,1′-Biphenyl]-3-ylmethoxy)-3-fluorophenyl)oxetan-3-yl)acetic acid] | > 500 |
| O=C(O)CC1(c2ccc(OCc3ccc(-c4ccccc4)cc3)c(F)c2)COC1 [Example 14, 2-(3-(4-([1,1′-Biphenyl]-4-ylmethoxy)-3-fluorophenyl)oxetan-3-yl)acetic acid] | > 500 |
| Cc1cc(OCCCS(C)(=O)=O)cc(C)c1-c1cccc(COc2ccc(C3(CC(=O)O)COC3)cc2F)c1 [Example 16, 2-(3-(4-((2′,6′-Dimethyl-4′-(3-(methylsulfonyl)propoxy)-[1,1′-biphenyl]-3-yl)methoxy)-3-fluorophenyl)oxetan-3-yl)acetic acid] | > 500 |
| CC1(C)CCC(C)(C)c2cc(COc3ccc(C4(CC(=O)O)COC4)cc3)ccc21 [Example 18, 2-(3-(4-((5,5,8,8-Tetramethyl-5,6,7,8-tetrahydronaphthalen-2-yl)methoxy)phenyl)oxetan-3-yl)acetic acid] | 100 to 500 |
| COc1ccc(COc2ccc(C3(CC(=O)O)COC3)cc2)cc1C(F)(F)F [Example 22] | > 500 |
| Cc1ccc(C(F)(F)F)cc1COc1ccc(C2(CC(=O)O)COC2)cc1 [Example 24] | > 500 |
| Cc1ccc(COc2ccc(C3(CC(=O)O)COC3)cc2)cc1C(F)(F)F [Example 28, 2-(3-(4-((4-Methyl-3-(trifluoromethyl)benzyl)oxy)phenyl)oxetan-3-yl)acetic acid] | 100 to 500 |
| COc1cc(COc2ccc(C3(CC(=O)O)COC3)cc2)ccc1C(F)(F)F [Example 30, 2-(3-(4-((3-Methoxy-4-(trifluoromethyl)benzyl)oxy)phenyl)oxetan-3-yl)acetic acid] | > 500 |
| O=C(O)CC1(c2ccc(OCc3ccc(C(F)(F)F)c(F)c3)cc2)COC1 [Example 32, 2-(3-(4-((3-Fluoro-4-(trifluoromethyl)benzyl)oxy)phenyl)oxetan-3-yl)acetic acid] | > 500 |
| Cc1cc(OCC2CCOC2)cc(C)c1-c1cccc(COc2ccc(C3(CC(=O)O)COC3)cc2)c1 (stereo not shown) [Example 41, 2-(3-(4-((2′,6′-Dimethyl-4′-((tetrahydrofuran-3-yl)methoxy)-[1,1′-biphenyl]-3-yl)methoxy)phenyl)oxetan-3-yl)acetic acid] | < 100 |
| Cc1cc(OCC2CCOCC2)cc(C)c1-c1cccc(COc2ccc(C3(CC(=O)O)COC3)cc2)c1 [Example 43, 2-(3-(4-((2′,6′-Dimethyl-4′-((tetrahydro-2H-pyran-4-yl)methoxy)-[1,1′-biphenyl]-3-yl)methoxy)phenyl)oxetan-3-yl)acetic acid] | < 100 |
| Cc1cc(OCC2CCS(=O)(=O)CC2)cc(C)c1-c1cccc(COc2ccc(C3(CC(=O)O)COC3)cc2)c1 [Example 45, 2-(3-(4-((4′-((1,1-Dioxidotetrahydro-2H-thiopyran-4-yl)methoxy)-2′,6′-dimethyl-[1,1′-biphenyl]-3-yl)methoxy)phenyl)oxetan-3-yl)acetic acid] | < 100 |
| Cc1cc(OCC2CCCO2)cc(C)c1-c1cccc(COc2ccc(C3(CC(=O)O)COC3)cc2)c1 (stereo not shown) [Example 47, 2-(3-(4-((2′,6′-Dimethyl-4′-((tetrahydrofuran-2-yl)methoxy)-[1,1′-biphenyl]-3-yl)methoxy)phenyl)oxetan-3-yl)acetic acid] | < 100 |
| Cc1cc(OC[C@@H]2CCOC2)cc(C)c1-c1cccc(COc2ccc(C3(CC(=O)O)COC3)cc2)c1 [Example 49, (R)-2-(3-(4-((2′,6′-dimethyl-4′-((tetrahydrofuran-3-yl)methoxy)-[1,1′-biphenyl]-3-yl)methoxy)phenyl)oxetan-3-yl)acetic acid] | < 100 |
| Cc1cc(OCC2(C)COC2)cc(C)c1-c1cccc(COc2ccc(C3(CC(=O)O)COC3)cc2)c1 [Example 51, 2-(3-(4-((2′,6′-Dimethyl-4′-((3-methyloxetan-3-yl)methoxy)-[1,1′-biphenyl]-3-yl)methoxy)phenyl)oxetan-3-yl)acetic acid] | > 500 |
| Cc1cc(OCC2CCS(=O)(=O)C2)cc(C)c1-c1cccc(COc2ccc(C3(CC(=O)O)COC3)cc2)c1 (stereo not shown) [Example 53, 2-(3-(4-((4′-((1,1-Dioxidotetrahydrothiophen-3-yl)methoxy)-2′,6′-dimethyl-[1,1′-biphenyl]-3-yl)methoxy)phenyl)oxetan-3-yl)acetic acid] | < 100 |
| Cc1cc(OCC2(CO)COC2)cc(C)c1-c1cccc(COc2ccc(C3(CC(=O)O)COC3)cc2)c1 [Example 55, 2-(3-(4-((4′-((3-(Hydroxymethyl)oxetan-3-yl)methoxy)-2′,6′-dimethyl-[1,1′-biphenyl]-3-yl)methoxy)phenyl)oxetan-3-yl)acetic acid] | < 100 |
| Cc1cc(OC2CCS(=O)(=O)CC2)cc(C)c1-c1cccc(COc2ccc(C3(CC(=O)O)COC3)cc2)c1 [Example 57, 2-(3-(4-((4′-((1,1-Dioxidotetrahydro-2H-thiopyran-4-yl)oxy)-2′,6′-dimethyl-[1,1′-biphenyl]-3-yl)methoxy)phenyl)oxetan-3-yl)acetic acid] | 100 to 500 |
| Cc1cc(OC2CCCC2)cc(C)c1-c1cccc(COc2ccc(C3(CC(=O)O)COC3)cc2)c1 [Example 59, 2-(3-(4-((4′-(Cyclopentyloxy)-2′,6′-dimethyl-[1,1′-biphenyl]-3-yl)methoxy)phenyl)oxetan-3-yl)acetic acid] | > 500 |
| CS(=O)(=O)CCCOc1ccc(-c2cccc(COc3ccc(C4(CC(=O)O)COC4)cc3)c2)c(Cl)c1 [Example 62, 2-(3-(4-((2′-Chloro-4′-(3-(methylsulfonyl)propoxy)-[1,1′-biphenyl]-3-yl)methoxy)phenyl)oxetan-3-yl)acetic acid] | < 100 |
| O=C(O)CC1(c2ccc(OCc3cccc(-c4ccc(OCC5(CO)COC5)cc4Cl)c3)cc2)COC1 [Example 66, 2-(3-(4-((2′-Chloro-4′-((3-(hydroxymethyl)oxetan-3-yl)methoxy)-[1,1′-biphenyl]-3-yl)methoxy)phenyl)oxetan-3-yl)acetic acid] | < 100 |
| O=C(O)CC1(c2ccc(OCc3cccc(-c4ccc(OCC5CCS(=O)(=O)C5)cc4Cl)c3)cc2)COC1 (stereo not shown) [Example 68, 2-(3-(4-((2′-Chloro-4′-((1,1-dioxidotetrahydrothiophen-3-yl)methoxy)-[1,1′-biphenyl]-3-yl)methoxy)phenyl)oxetan-3-yl)acetic acid] | < 100 |
| O=C(O)CC1(c2ccc(OCc3cccc(-c4ccc(OCC5CCS(=O)(=O)CC5)cc4Cl)c3)cc2)COC1 [Example 70, 2-(3-(4-((2′-Chloro-4′-((1,1-dioxidotetrahydro-2H-thiopyran-4-yl)methoxy)-[1,1′-biphenyl]-3-yl)methoxy)phenyl)oxetan-3-yl)acetic acid] | < 100 |
| O=C(O)CC1(c2ccc(OCc3cccc(-c4ccc(OCC5CCOCC5)cc4Cl)c3)cc2)COC1 [Example 72, 2-(3-(4-((2′-Chloro-4′-((tetrahydro-2H-pyran-4-yl)methoxy)-[1,1′-biphenyl]-3-yl)methoxy)phenyl)oxetan-3-yl)acetic acid] | < 100 |
